Experimental data from patent US11414424B2, “Cardiac sarcomere inhibitors” (Cytokinetics, Inc., priority 2018, dated 2022).

Test system: bovine cardiac myofibrils
Experiment: Myofibril assay: PK/LDH-coupled steady-state ATPase activity of skinned bovine cardiac myofibrils
Assay type: biochemical
Conditions: Ca2+ activating to 75% of maximal rate
Procedure, shortened: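 Steady-state ATPase of detergent-skinned bovine left-ventricular myofibrils (1 mg/mL), PK/LDH-coupled NADH read at 340 nm, in PIPES/MgCl2 buffer pH 6.8 with 50 μM ATP, 0.6 mM EGTA and CaCl2 set for 50% or 75% activation. Inhibition of activity measured.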

CDMF75 IC15	SMILES
5.4 µM	CC(C)N1CC(=O)N(Cc2ccc(Cl)cc2)C2(CN(c3ccn(C)c(=O)c3)C2)C1=O [Compound 42, 5-(4-chlorobenzyl)-8-isopropyl-2-(1-methyl-2-oxo-1,2-dihydropyridin-4-yl)-2,5,8-triazaspiro-[3.5]nonane-6,9-dione]
3.3 µM	Cc1csc(N2CC3(C2)C(=O)N(C(C)C)CC(=O)N3Cc2ccc(Cl)cc2)n1 [Compound 43, 5-(4-chlorobenzyl)-8-isopropyl-2-(4-methyl-thiazol-2-yl)-2,5,8-triazaspiro[3.5]nonane-6,9-dione]
2.4 µM	Cc1cnc(N2CC3(C2)C(=O)N(C(C)C)CC(=O)N3Cc2ccc(Cl)cc2)s1 [Compound 44, 5-(4-chlorobenzyl)-8-isopropyl-2-(5-methyl-thiazol-2-yl)-2,5,8-triazaspiro[3.5]nonane-6,9-dione]
12.8 µM	Cc1nnc(N2CC3(C2)C(=O)N(C(C)C)CC(=O)N3Cc2ccc(Cl)cc2)o1 [Compound 45, 5-(4-chlorobenzyl)-8-isopropyl-2-(5-methyl-1,3,4-oxadiazol-2-yl)-2,5,8-triazaspiro[3.5]-nonane-6,9-dione]
0.9 µM	CC(C)N1CC(=O)N(Cc2ccc(C(F)(F)F)cc2)C2(CN(c3ccccn3)C2)C1=O [Compound 46, 8-isopropyl-2-(pyridin-2-yl)-5-(4-(trifluoromethyl)-benzyl)-2,5,8-triazaspiro-[3.5]nonane-6,9-dione]
3.7 µM	CC(C)N1CC(=O)N(Cc2ccc(Cl)cc2)C2(CN(c3nc4c(s3)COCC4)C2)C1=O [Compound 47, 5-(4-chlorobenzyl)-2-(6,7-dihydro-4H-pyrano[4,3-d]thiazol-2-yl)-8-isopropyl-2,5,8-triazaspiro[3.5]-nonane-6,9-dione]
1.6 µM	CC(C)N1CC(=O)N(Cc2ccc(C(F)(F)F)cc2)C2(CN(c3cc[nH]c(=O)c3)C2)C1=O [Compound 48, 8-isopropyl-2-(2-oxo-1,2-dihydropyridin-4-yl)-5-(4-(trifluoromethyl)benzyl)-2,5,8-triazaspiro[3.5]-nonane-6,9-dione]
9.3 µM	Cc1cc(N2CC3(C2)C(=O)N(C(C)C)CC(=O)N3Cc2ccc(Cl)cc2)cc(C)n1 [Compound 49, 5-(4-chlorobenzyl)-2-(2,6-dimethylpyridin-4-yl)-8-isopropyl-2,5,8-triazaspiro[3.5]nonane-6,9-dione]
5.8 µM	CC(C)N1CC(=O)N(Cc2ccc(Cl)cc2)C2(CN(c3ccc(Cl)nn3)C2)C1=O [Compound 50, 5-(4-chlorobenzyl)-2-(6-chloropyridazin-3-yl)-8-isopropyl-2,5,8-triazaspiro[3.5]nonane-6,9-dione]
5.7 µM	COc1ccc(N2CC3(C2)C(=O)N(C(C)C)CC(=O)N3Cc2ccc(Cl)cc2)nn1 [Compound 51, 5-(4-chlorobenzyl)-8-isopropyl-2-(6-methoxypyridazin-3-yl)-2,5,8-triazaspiro-[3.5]nonane-6,9-dione]
17.8 µM	CC(C)N1CC(=O)N(Cc2ccc(Cl)cc2)C2(CN(c3ccc(=O)[nH]n3)C2)C1=O [Compound 52, 5-(4-chlorobenzyl)-8-isopropyl-2-(6-oxo-1,6-dihydropyridazin-3-yl)-2,5,8-triazaspiro[3.5]-nonane-6,9-dione]
14.7 µM	CC(C)N1CC(=O)N(Cc2ccc(Cl)cc2)C2(CN(c3ccc(C(F)(F)F)nn3)C2)C1=O [Compound 53, 5-(4-chlorobenzyl)-8-isopropyl-2-(6-(trifluoromethyl)pyridazin-3-yl)-2,5,8-triazaspiro-[3.5]nonane-6,9-dione]
7.8 µM	CC(C)N1CC(=O)N(Cc2ccc(Cl)cc2)C2(CN(c3ccc(C(N)=O)nn3)C2)C1=O [Compound 54, 6-(5-(4-chlorobenzyl)-8-isopropyl-6,9-dioxo-2,5,8-triazaspiro[3.5]-nonan-2-yl)pyridazine-3-carboxamide]
6.7 µM	Cc1ccc(N2CC3(C2)C(=O)N(C(C)C)CC(=O)N3Cc2ccc(Cl)cc2)nn1 [Compound 55, 5-(4-chlorobenzyl)-8-isopropyl-2-(6-methylpyridazin-3-yl)-2,5,8-triazaspiro[3.5]-nonane-6,9-dione]
18.3 µM	CC(C)N1CC(=O)N(Cc2ccc(Cl)cc2)C2(CN(c3cnc(Cl)cn3)C2)C1=O [Compound 56, 5-(4-chlorobenzyl)-2-(5-chloropyrazin-2-yl)-8-isopropyl-2,5,8-triazaspiro[3.5]nonane-6,9-dione]
33.3 µM	CCN1CC(=O)N(Cc2ccc(C(F)(F)F)cc2)C2(CN(c3ccc(C#N)cn3)C2)C1=O [Compound 57, 6-(8-ethyl-6,9-dioxo-5-(4-(trifluoromethyl)benzyl)-2,5,8-triazaspiro[3.5]-nonan-2-yl)nicotinonitrile]
4.1 µM	N#Cc1ccc(N2CC3(C2)C(=O)N(C2CCCC2)CC(=O)N3Cc2ccc(C(F)(F)F)cc2)nc1 [Compound 58, 6-(8-cyclopentyl-6,9-dioxo-5-(4-(trifluoromethyl)benzyl)-2,5,8-triazaspiro[3.5]-nonan-2-yl)nicotinonitrile]

CDMF75 IC15	SMILES
23.4 µM	CC(C)CN1CC(=O)N(Cc2ccc(C(F)(F)F)cc2)C2(CN(c3ccc(C#N)cn3)C2)C1=O [Compound 59, 6-(8-isobutyl-6,9-dioxo-5-(4-(trifluoromethyl)benzyl)-2,5,8-triazaspiro[3.5]-nonan-2-yl)nicotinonitrile]
14.3 µM	CC(C)N1CC(=O)N(Cc2ccc(Cl)cc2)C2(CN(c3cc(Cl)cnn3)C2)C1=O [Compound 60, 5-(4-chlorobenzyl)-2-(5-chloropyridazin-3-yl)-8-isopropyl-2,5,8-triazaspiro[3.5]nonane-6,9-dione]
22.9 µM	CC(C)N1CC(=O)N(Cc2ccc(Cl)cc2)C2(CN(c3cnnc(Cl)c3)C2)C1=O [Compound 61, 5-(4-chlorobenzyl)-2-(6-chloropyridazin-4-yl)-8-isopropyl-2,5,8-triazaspiro[3.5]nonane-6,9-dione]
1.8 µM	N#Cc1ccc(N2CC3(C2)C(=O)N(C2CCCCC2)CC(=O)N3Cc2ccc(C(F)(F)F)cc2)nc1 [Compound 62, 6-(8-cydohexyl-6,9-dioxo-5-(4-(trifluoromethyl)-benzyl)-2,5,8-triazaspiro[3.5]nonan-2-yl)nicotinonitrile]
5.1 µM	CC(C)N1CC(=O)N(Cc2ccc(Cl)cc2)C2(CN(c3ccc(C#N)cn3)C2)C1=O [Compound 63, 6-(5-(4-chlorobenzyl)-8-isopropyl-6,9-dioxo-2,5,8-triazaspiro[3.5]nonan-2-yl)nicotinonitrile]
23.6 µM	COC(=O)N1CC2(C1)C(=O)N(C(C)C)CC(=O)N2Cc1ccc(Cl)cc1 [Compound 64, methyl 5-(4-chlorobenzyl)-8-isopropyl-6,9-dioxo-2,5,8-triazaspiro[3.5]-nonane-2-carboxylate]
17.6 µM	CC(C)N1CC(=O)N(Cc2ccc(Cl)cc2)C2(CN(C(=O)Nc3cnn(C)c3)C2)C1=O [Compound 66, 5-(4-chlorobenzyl)-8-isopropyl-N-(1-methyl-1H-pyrazol-4-yl)-6,9-dioxo-2,5,8-triazaspiro[3.5]-nonane-2-carboxamide]
6.0 µM	CNC(=O)N1CC2(C1)C(=O)N(C(C)C)CC(=O)N2Cc1ccc(C(F)(F)F)cc1 [Compound 67, 8-isopropyl-N-methyl-6,9-dioxo-5-(4-(trifluoromethyl)benzyl)-2,5,8-triazaspiro[3.5]-nonane-2-carboxamide]
9.2 µM	CC(C)N1CC(=O)N(Cc2ccc(C(F)(F)F)cc2)C2(CN(C(N)=O)C2)C1=O [Compound 68, 8-isopropyl-6,9-dioxo-5-(4-(trifluoromethyl)benzyl)-2,5,8-triazaspiro[3.5]-nonane-2-carboxamide]
15.4 µM	CC(C)N1CC(=O)N(Cc2ccc(C(F)(F)F)cc2)C2(CN(C=O)C2)C1=O [Compound 69, 8-isopropyl-6,9-dioxo-5-(4-(trifluoromethyl)benzyl)-2,5,8-triazaspiro[3.5]-nonane-2-carbaldehyde]
9.5 µM	CNC(=O)N1CC2(C1)C(=O)N(C1CCCC1)CC(=O)N2Cc1ccc(C(F)(F)F)cc1 [Compound 70, 8-cyclopentyl-N-methyl-6,9-dioxo-5-(4-(trifluoromethyl)benzyl)-2,5,8-triazaspiro[3.5]-nonane-2-carboxamide]
4.8 µM	CC(C)N1CC(=O)N(Cc2ccc(Cl)cc2)C2(CCN(c3ccncn3)C2)C1=O (stereo not shown) [Compound 71, 6-(4-chlorobenzyl)-9-isopropyl-2-(pyrimidin-4-yl)-2,6,9-triazaspiro-[4.5]decane-7,10-dione]
9.0 µM	Cc1cc(N2CCC3(C2)C(=O)N(C(C)C)CC(=O)N3Cc2ccc(C(F)(F)F)cc2)ccn1 (stereo not shown) [Compound 72, 9-isopropyl-2-(2-methylpyridin-4-yl)-6-(4-(trifluoromethyl)benzyl)-2,6,9-triazaspiro[4.5]-decane-7,10-dione]
5.7 µM	CC(C)N1CC(=O)N(Cc2ccc(C(F)(F)F)cc2)C2(CCN(c3cccnn3)C2)C1=O (stereo not shown) [Compound 73, 9-isopropyl-2-(pyridazin-3-yl)-6-(4-(trifluoromethyl)benzyl)-2,6,9-triazaspiro[4.5]-decane-7,10-dione]
4.2 µM	CC(C)N1CC(=O)N(Cc2ccc(Cl)cc2)C2(CCN(c3cnccn3)C2)C1=O (stereo not shown) [Compound 74, 6-(4-chlorobenzyl)-9-isopropyl-2-(pyrazin-2-yl)-2,6,9-triazaspiro[4.5]-decane-7,10-dione]
1.1 µM	Cc1ccc(N2CCC3(C2)C(=O)N(C(C)C)CC(=O)N3Cc2ccc(Cl)cc2)nc1 (stereo not shown) [Compound 75, 6-(4-chlorobenzyl)-9-isopropyl-2-(5-methylpyridin-2-yl)-2,6,9-triazaspiro[4.5]-decane-7,10-dione]

SMILES	CDMF75 IC15
CNC(=O)N1CC2(C1)C(=O)N(C(C)C)CC(=O)N2Cc1ccc(Cl)cc1 [Compound 65, 5-(4-chlorobenzyl)-8-isopropyl-N-methyl-6,9-dioxo-2,5,8-triazaspiro[3.5]nonane-2-carboxamide]	9.8 µM
